Where a name gives a salt, the structure may show the parent alone.
biological target: FAAH (Homo sapiens (Human), UniProt O00519); test: Assay Method 1: FAAH assay, T84 cell homogenate, 3H-anandamide hydrolysis; assay type: biochemical; conditions: 3H-AEA tracer 200 nM, 1 h at rt
Method: T84 frozen pellets (contents of 1-4×15 cm culture dishes) were homogenized in 300 mL of FAAH assay buffer (125 mM Tris, 1 mM EDTA, 0.2% glycerol, 0.02% Triton X-100, 0.4 mM Hepes, pH 9). The assay mixture was prepared from 50 μL of the cell homogenate, 10 μL of the test compound, and 40 μL of anandamide [1-3H-ethanolamine] (^3H-AEA; Perkin-Elmer, 10.3 Ci/mmol), which was added last, for a final tracer concentration of 200 nM. The reaction mixture was incubated at rt for 1 hour (h). During the incubation, 96-well Multiscreen filter plates (catalog number MAFCNOB50; Millipore, Bedford, Mass., USA) were loaded with 25 μL of activated charcoal (Multiscreen column loader, catalog number MACL09625, Millipore) and washed once with 100 μL of MeOH. Also during the incubation, 96-well DYNEX MicroLite plates (catalog number NL510410) were loaded with 100 μL of MicroScint40 (catalog number 6013641, Packard Bioscience, Meriden, Conn., USA). After the 1 h incubation, 60 μL of the reaction mixture were transferred to the charcoal plates, which were then assembled on top of the DYNEX plates using Centrifuge Alignment Frames (catalog number MACF09604, Millipore). The unbound, labeled ethanolamine was centrifuged through to the bottom plate (5 min at 2000 rpm), which was preloaded with the scintillant, as described above. The plates were sealed and left at rt for 1 h before counting on a Hewlett Packard TopCount.

FAAH, sequence (O00519 whole entry): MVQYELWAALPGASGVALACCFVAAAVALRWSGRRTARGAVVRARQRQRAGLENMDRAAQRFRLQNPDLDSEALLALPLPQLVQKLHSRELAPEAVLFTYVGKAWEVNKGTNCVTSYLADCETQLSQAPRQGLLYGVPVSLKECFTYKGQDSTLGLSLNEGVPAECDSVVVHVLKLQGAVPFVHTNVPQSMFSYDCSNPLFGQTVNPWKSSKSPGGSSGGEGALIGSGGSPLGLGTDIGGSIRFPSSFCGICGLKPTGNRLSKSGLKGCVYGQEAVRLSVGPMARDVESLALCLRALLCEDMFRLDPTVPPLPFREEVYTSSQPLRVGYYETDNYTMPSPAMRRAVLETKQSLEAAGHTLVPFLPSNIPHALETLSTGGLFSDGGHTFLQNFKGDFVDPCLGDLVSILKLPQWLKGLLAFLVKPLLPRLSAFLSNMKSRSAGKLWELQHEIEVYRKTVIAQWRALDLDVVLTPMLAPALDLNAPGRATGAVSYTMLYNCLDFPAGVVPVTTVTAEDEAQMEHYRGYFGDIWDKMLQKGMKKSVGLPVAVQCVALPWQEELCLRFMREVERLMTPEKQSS

SMILES	IC50 [nM]
O=C(Nc1cccc(F)c1)N1CCN(Cc2ccc(Br)c(Br)c2)CC1 [Example 85, 4-(3,4-Dibromo-benzyl)-piperazine-1-carboxylic acid (3-fluoro-phenyl)-amide]	19
O=C(Nc1ccc(Cl)cc1)N1CCN(Cc2ccc(Br)c(Br)c2)CC1 [Example 95, 4-(3,4-Dibromo-benzyl)-piperazine-1-carboxylic acid (4-chloro-phenyl)-amide]	500
Cc1ccccc1NC(=O)N1CCN(Cc2ccc(Br)c(Br)c2)CC1 [Example 96, 4-(3,4-Dibromo-benzyl)-piperazine-1-carboxylic acid o-tolylamide]	> 10000
Cc1ccc(NC(=O)N2CCN(Cc3cnc4ccccc4c3)CC2)cc1 [Example 104, 4-Quinolin-3-ylmethyl-piperazine-1-carboxylic acid p-tolylamide]	690
Cc1cccc(NC(=O)N2CCN(Cc3cnc4ccccc4c3)CC2)c1 [Example 109, 4-Quinolin-3-ylmethyl-piperazine-1-carboxylic acid m-tolylamide]	200
Cc1ccc(NC(=O)N2CCC(Cc3ccccc3)CC2)cc1 [Example 113, 4-Benzyl-piperidine-1-carboxylic acid p-tolylamide]	8000
O=C(Nc1ccccc1)N1CCN(C2CCc3cc(Br)ccc3C2)CC1 (stereo not drawn) [Example L, 4-(6-Bromo-1,2,3,4-tetrahydro-naphthalen-2-yl)-piperazine-1-carboxylic acid phenylamide, reference compound]	370
O=C(Nc1ccccc1)N1CCN(Cc2ccccn2)CC1 [Example 46, 4-Pyridin-2-ylmethyl-piperazine-1-carboxylic acid phenylamide]	> 10000
O=C(Nc1ccc(F)cc1)N1CCN(Cc2ccc(Br)c(Br)c2)CC1 [Example 86, 4-(3,4-Dibromo-benzyl)-piperazine-1-carboxylic acid (4-fluoro-phenyl)-amide]	21
O=C(Nc1ccccc1)N1CCN(Cc2cccc3ccccc23)CC1 [Example 40, 4-Naphthalen-1-ylmethyl-piperazine-1-carboxylic acid phenylamide]	1100
O=C(Nc1ccccc1)N1CCN(Cc2cc3ccccc3nc2Cl)CC1 [Example 56, 4-(2-Chloro-quinolin-3-ylmethyl)-piperazine-1-carboxylic acid phenylamide]	9000

More lines, now with the values ahead:

IC50 [nM]	SMILES
10000	CN(C)CCOc1cccc(CN2CCN(C(=O)Nc3ccccc3)CC2)c1 [Example 125, 4-[3-(2-Dimethylamino-ethoxy)-benzyl]-piperazine-1-carboxylic acid phenylamide]
1000	CS(=O)(=O)Oc1cccc(CN2CCN(C(=O)Nc3ccccc3)CC2)c1 [Example 137, Methanesulfonic acid 3-(4-phenylcarbamoyl-piperazin-1-ylmethyl)-phenyl ester]
330	CCn1c2ccccc2c2cc(CN3CCN(C(=O)Nc4ccccc4)CC3)ccc21 [Example 80, 4-(9-Ethyl-9H-carbazol-3-ylmethyl)-piperazine-1-carboxylic acid phenylamide]
83	COc1cccc(Oc2cccc(CN3CCN(C(=O)Nc4ccccc4)CC3)c2)c1 [Example 135, 4-[3-(3-Methoxy-phenoxy)-benzyl]-piperazine-1-carboxylic acid phenylamide]
9	COc1ccc(Oc2cccc(CN3CCN(C(=O)Nc4ccccc4)CC3)c2)cc1 [Example 65, 4-[3-(4-Methoxy-phenoxy)-benzyl]-piperazine-1-carboxylic acid phenylamide]
69	CC(C)(C)c1ccc(Oc2cccc(CN3CCN(C(=O)Nc4ccccc4)CC3)c2)cc1 [Example 63, 4-[3-(4-tert-Butyl-phenoxy)-benzyl]-piperazine-1-carboxylic acid phenylamide]

same assay, conditions: 3H-AEA tracer 200 nM, 1 h at rt, hydrochloride

IC50 [nM]	SMILES
1200	O=C(Nc1ccccc1)N1CCN(Cc2ccc3c(c2)OCO3)CC1 [Example B1, 4-Benzo[1,3]dioxol-5-ylmethyl-piperazine-1-carboxylic acid phenylamide hydrochloride, reference compound]
